From patent US8932597B2 (priority 2008, dated 2015)

Experiments:
HuM2e antibody 23K12 = assay type: binding, human
[1] = tested on: anti-M2 human monoclonal antibody Z3G1; assay type: binding

430 (SLLTEVETPIRNEWGCRCNDSRD; epitope peptide) [compound 430]
Signal (peptides that bind to 23K21 and 8I10) (HuM2e antibody 23K12): 833 | Signal (peptides that bind to Z3G1) [1]: 2373

549 (SLLTEVETFIRNEWGCRCNDSSD; epitope peptide) [compound 549]
Signal (peptides that bind to 23K21 and 8I10) (HuM2e antibody 23K12): 916 | Signal (peptides that show specific binding to Z3G1) [1]: 2301

375 (SLLTEVETPIRNEWGCRVNDSSD; epitope peptide) [compound 375]
Signal (peptides that bind to 23K21 and 8I10) (HuM2e antibody 23K12): 1446 | Signal (peptides that show specific binding to Z3G1) [1]: 2316

619 (SLLTEVETPIRNEWGCRCNASSD; epitope peptide) [compound 619]
Signal (peptides that bind to 23K21 and 8I10) (HuM2e antibody 23K12): 807 | Signal (peptides that bind to Z3G1) [1]: 2454

699 (SLLTEVETPIRNEWGCRYNDSSD; epitope peptide) [compound 699]
Signal (peptides that bind to 23K21 and 8I10) (HuM2e antibody 23K12): 716 | Signal (peptides that bind to Z3G1) [1]: 2169

647 (SLLTEVETPIRNEWGHRCNDSSD; epitope peptide) [compound 647]
Signal (peptides that bind to 23K21 and 8I10) (HuM2e antibody 23K12): 763 | Signal (peptides that show specific binding to Z3G1) [1]: 2113

368 (SLLTEVETPIRNEWG; epitope peptide) [compound 368]
Signal (peptides that bind to 23K21 and 8I10) (HuM2e antibody 23K12): 1486 | Signal (peptides that bind to Z3G1) [1]: 2429

161 (CPIRNEWGSRSNDSSDCSLLTEVETC; epitope peptide) [compound 161]
Signal (peptides that bind to 23K21 and 8I10) (HuM2e antibody 23K12): 1206 | Signal (peptides that show specific binding to Z3G1) [1]: 2759

536 (MCLCTCVGCSLLTEV; epitope peptide) [compound 536]
Signal (peptides that bind to 23K21 and 8I10) (HuM2e antibody 23K12): 954 | Signal (peptides that bind to Z3G1) [1]: 2241

364 (CSLLTEVGCSLLTEV; epitope peptide) [compound 364]
Signal (peptides that bind to 23K21 and 8I10) (HuM2e antibody 23K12): 1499 | Signal (peptides that bind to Z3G1) [1]: 2503

349 (SLATEVETPIRNEWGCRCNDSSD; epitope peptide) [compound 349]
Signal (peptides that bind to 23K21 and 8I10) (HuM2e antibody 23K12): 1583 | Signal (peptides that show specific binding to Z3G1) [1]: 2145

365 (CSLLTEVCMSLLTEC; epitope peptide) [compound 365]
Signal (peptides that bind to 23K21 and 8I10) (HuM2e antibody 23K12): 1498 | Signal (peptides that bind to Z3G1) [1]: 1891

516 (SLLTEVETPIRNEWGCRCPDSSD; epitope peptide) [compound 516]
Signal (peptides that bind to 23K21 and 8I10) (HuM2e antibody 23K12): 1024 | Signal (peptides that bind to Z3G1) [1]: 2449

297 (CSLLTEVGMCLCTCV; epitope peptide) [compound 297]
Signal (peptides that bind to 23K21 and 8I10) (HuM2e antibody 23K12): 1972 | Signal (peptides that bind to Z3G1) [1]: 2649

291 (MSLLTEVGMCLCTCV; epitope peptide) [compound 291]
Signal (peptides that bind to 23K21 and 8I10) (HuM2e antibody 23K12): 2110 | Signal (peptides that bind to Z3G1) [1]: 2842

631 (SLLTEVETPIRKEWGCRCNDSSD; epitope peptide) [compound 631]
Signal (peptides that bind to 23K21 and 8I10) (HuM2e antibody 23K12): 782 | Signal (peptides that show specific binding to Z3G1) [1]: 2437

659 (SLLTEVETPIRNEWGARCNDSSD; epitope peptide) [compound 659]
Signal (peptides that bind to 23K21 and 8I10) (HuM2e antibody 23K12): 750 | Signal (peptides that show specific binding to Z3G1) [1]: 2396

600 (SLLTEVETPIRNEWGLRCNDSSD; epitope peptide) [compound 600]
Signal (peptides that bind to 23K21 and 8I10) (HuM2e antibody 23K12): 831 | Signal (peptides that show specific binding to Z3G1) [1]: 2389

499 (CSLLTEVGMSCLCEC; epitope peptide) [compound 499]
Signal (peptides that bind to 23K21 and 8I10) (HuM2e antibody 23K12): 1066 | Signal (peptides that bind to Z3G1) [1]: 2101

563 (SLLTEVETPIRNEWGGRCNDSSD; epitope peptide) [compound 563]
Signal (peptides that bind to 23K21 and 8I10) (HuM2e antibody 23K12): 887 | Signal (peptides that show specific binding to Z3G1) [1]: 2270

300 (SLLTEVETKIRNEWGCRCNDSSD; epitope peptide) [compound 300]
Signal (peptides that bind to 23K21 and 8I10) (HuM2e antibody 23K12): 1960 | Signal (peptides that show specific binding to Z3G1) [1]: 2485

672 (SLLTEVETPIRNEWGRRCNDSSD; epitope peptide) [compound 672]
Signal (peptides that bind to 23K21 and 8I10) (HuM2e antibody 23K12): 735 | Signal (peptides that show specific binding to Z3G1) [1]: 2372

317 (MSLLTEVGMSLCTEV; epitope peptide) [compound 317]
Signal (peptides that bind to 23K21 and 8I10) (HuM2e antibody 23K12): 1804 | Signal (peptides that bind to Z3G1) [1]: 2895

714 (SLLTEVETPIRNEWCCRCNDSSD; epitope peptide) [compound 714]
Signal (peptides that bind to 23K21 and 8I10) (HuM2e antibody 23K12): 704 | Signal (peptides that show specific binding to Z3G1) [1]: 2388

682 (SLLTEVETPIRNEWGSRCNDSSD; epitope peptide) [compound 682]
Signal (peptides that bind to 23K21 and 8I10) (HuM2e antibody 23K12): 729 | Signal (peptides that show specific binding to Z3G1) [1]: 2346

663 (MCLCTCVGMSLLTEV; epitope peptide) [compound 663]
Signal (peptides that bind to 23K21 and 8I10) (HuM2e antibody 23K12): 746 | Signal (peptides that bind to Z3G1) [1]: 2509

712 (SLLTEVETPIRNDWGCRCNDSSD; epitope peptide) [compound 712]
Signal (peptides that bind to 23K21 and 8I10) (HuM2e antibody 23K12): 706 | Signal (peptides that show specific binding to Z3G1) [1]: 2324

454 (SLLTEVETPIMNEWGCRCNDSSD; epitope peptide) [compound 454]
Signal (peptides that bind to 23K21 and 8I10) (HuM2e antibody 23K12): 1308 | Signal (peptides that show specific binding to Z3G1) [1]: 2369

713 (SLLTEVETPIRNEWGQRCNDSSD; epitope peptide) [compound 713]
Signal (peptides that bind to 23K21 and 8I10) (HuM2e antibody 23K12): 705 | Signal (peptides that show specific binding to Z3G1) [1]: 2369
